Experimental data published in patent US12139481B2, “Compositions comprising macrocycle derivatives incorporating bridged macrocycles and methods of producing and using same” (Southwestern Oklahoma State University, priority 2015, dated 2024).
Read-outs that look alike come from different tables or passages of the source.

Assays:
[1] = test system: Cryptococcus neoformans ATCC 90113; assay: Antimicrobial microdilution assay against Cryptococcus neoformans (modified CLSI/NCCLS, optical density); assay type: cell-based; conditions: for X more potent than Amphotericin B: C. neoformans, ratio of molar IC50 to Amphotericin B; for C. neoformans IC50 / IC50: in vitro, C. neoformans ATCC 90113; for IC50: read-out: C. neoformans IC50 (mol/L)
Procedure, shortened: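 Fungicidal endpoint taken by subculturing 5 μL from each clear well onto agar, MFC being the lowest concentration with no regrowth. Duplicate wells of serially diluted compound (20% DMSO/saline) in RPMI pH 6.0, read at 630 nm pre- and post-incubation, under modified CLSI methods. IC50 means 50% growth inhibition against controls.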

C. krusei ATCC 6258 = assay: Antifungal broth dilution assay against C. krusei (modified CLSI); assay type: cell-based, Candida krusei; conditions: for X more potent than Amphotericin B: C. krusei, ratio of molar IC50 to amphotericin B; for C. krusei IC50 / IC50: in vitro; for IC50: read-out: C. krusei IC50 (mol/L)
Method: (§1) General Experimental Procedures. All organisms were obtained from the American Type Culture Collection (Manassas, VA) and include the fungi Candida albicans ATCC 90028, C. glabrata ATCC 90030, C. krusei ATCC 6258, and Cryptococcus neoformans ATCC 90113, and the bacteria Staphylococcus aureus ATCC 29213 and methicillin-resistant S. aureus ATCC 33591 (MRS). All organisms were tested using modified versions of the CLSI (formerly NCCLS) methods. For all organisms, optical density was used to monitor growth (NCCLS, Reference Method for Broth Dilution Antifungal Susceptibility Testing of Yeasts; Approved Standard M27-A2. National Committee on Clinical Laboratory Standards, 2002 22 (15); and NCCLS, Methods for Dilution Antimicrobial Susceptibility Tests for Bacteria that Grow Aerobically; Approved Standard, Seventh Edition M7-A7. National Committee on Clinical Laboratory Standards, 2006. 26(2)).
(§2) Samples (dissolved in DMSO) were serially-diluted in 20% DMSO/saline and transferred (10 μL) in duplicate to 96 well flat bottom microplates. Inocula were prepared by correcting the OD630 of microbe suspensions in incubation broth [RPMI 1640/0.2% dextrose/0.03% glutamine/MOPS @ pH 6.0 (Cellgro) for Candida spp., Sabouraud Dextrose for C. neoformans, and cation-adjusted Mueller-Hinton (Difco) @ pH 7.3 for Staphylococcus spp. to afford an assay volume of […] and final target inocula of: Candida spp. and C. neoformans: 1.5×10^3, and Staphylococcus spp.: 5.0×10^5 CFU/ml. Final sample test concentrations were 1/100th the DMSO stock concentration. […] All organisms were read at either 530 nm using the Biotek Powerwave XS plate reader (Bio-Tek Instruments, Vermont) prior to and after incubation: Candida spp. at 35° C. for 46-50 h, Staphylococcus spp. at 35° C. for 16-20 h, and C. neoformans at 35° C. for 70-74 h. IC50s (concentrations that afford 50% inhibition relative to controls) were calculated using XLfit 4.2 software (IDBS, Alameda, CA) using fit model 201. The MIC is defined as the lowest test concentration that allows no detectable growth. Minimum fungicidal or bactericidal concentrations were determined by removing 5 μl from each clear (or blue) well, transferring to fresh media, and incubating as previously mentioned. The MFC/MBC is defined as the lowest test concentration that kills the organism (allows no growth).
(§3) Primary Analysis. Samples were tested in duplicate at one test concentration (50 μg/mL), and percent inhibitions were calculated relative to blank and growth controls. Samples showing 50% inhibition in at least one test organism were selected for dose response (Secondary) studies.
(§4) Secondary Analysis. Extracts from the Primary Assay, and first-run pure compounds and column fractions were tested in duplicate at 3 test concentrations (5-fold dilutions). Samples dissolved to 20 mg/mL in DMSO were tested at 200, 40, and 8 μg/mL. Samples dissolved to 2 mg/mL in DMSO were tested at 20, 4, and 0.8 μg/mL.

[2] = test system: Plasmodium falciparum D6 clone (Sierra Leon, chloroquine-sensitive); assay: In vitro antimalarial assay, chloroquine-sensitive D6 clone; assay type: cell-based; conditions: for X more potent than chloroquine: molar IC50 ratio versus chloroquine
Method: (§5) The compounds were assayed for in vitro antimalarial activity against the W2 clone and D6 clone of the pathogenic Plasmodium falciparum. The strains of P. falciparum were obtained from the Division of Experimental Therapeutics, Walter Reed Army Institute of Research, Washington D.C. Strains of Sierra Leon D6 and Indochina W2 are chloroquine-sensitive and chloroquine-resistant, respectively. The parasite was grown in type A human RBCs and, two strains subcultured daily with fresh medium and blood cells. On the day of the assay, a suspension of infected blood cells (2% parasitemia and 2% hematocrit) was prepared using type A human red blood cells. Assays were performed by standard 96-well flat-bottomed microplate methods and done in duplicate at different concentrations. IC50 values were obtained from the dose curves. Artemisinin and chloroquine were included in each assay as the drug controls, and DMSO was used as vehicle control. The whole protocol was developed based on the published method of Makler. The cytotoxicity assays were also performed in parallel against the Vero cells, and the selectivity index was measured. A selectivity index of >9 was considered to indicate a lead for further development of antimalarial drug.

[3] = test system: Plasmodium falciparum W2 clone (Indochina, chloroquine-resistant); assay: In vitro antimalarial assay, chloroquine-resistant W2 clone; assay type: cell-based; conditions: for X more potent than chloroquine: molar IC50 ratio versus chloroquine
Method: as §5

[4] = test system: L. donovani promastigotes; assay: Antileishmanial Alamar Blue assay on promastigotes; assay type: cell-based, Leishmania donovani; conditions: for X more potent than Pentamidine: L. donovani, ratio of molar IC50 to Pentamidine; for L. donovani IC50 / IC50: promastigotes, 48 hours, Alamar Blue; for IC50: read-out: L. donavani IC50
Procedure, shortened: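 Alamar Blue fluorescence (544/590 nm) quantified growth after 48 hours at 26° C of compound-treated promastigotes. Parasites were seeded at 5×10^5/mL in RPMI 1640 plus 10% FCS; drug range 50-3.1 μg/mL, and IC50 derived by plotting percent growth against test concentration.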

C. glabrata ATCC 90030 = assay: Antifungal broth dilution assay against C. glabrata (modified CLSI); assay type: cell-based, Candida glabrata
Method: as §1, §2, §3, §4

[5] = test system: Staphylococcus aureus ATCC 29213; assay: Antibacterial broth dilution assay against S. aureus (modified CLSI); assay type: cell-based
Method: as §1, §2, §3, §4

[6] = D6 clone, converted with molecular weight, read-out: P. falciparum D6 IC50
[7] = W2 clone, converted with molecular weight, read-out: P. falciparum W2 IC50
[8] = in vitro, converted with molecular weight

Molecule	X more potent than Amphotericin B [1]	C. neoformans IC50 [1]	IC50 [1]	P. falciparum D6 IC50 ([2]; D6 clone)	IC50 [2, 6]	X more potent than chloroquine ([2]; D6 clone)	P. falciparum W2 IC50 ([3]; W2 clone)	IC50 [3, 7]	X more potent than chloroquine ([3]; W2 clone)	X more potent than Pentamidine [4]	L. donovani IC50 [4]	IC50 [4]	further results
CN1CCN2CCN(CC1)CCN(Cc1nc3ccccc3n1Cc1ccc([N+](=O)[O-])cc1)CC2 [SJA230, CB-BINO2-cyclen]	0.01	7.930 µg/mL	16600 nM	–	–	–	–	–	–	–	–	–	X more potent than Amphotericin B (C. krusei ATCC 6258): 0.09; C. krusei IC50 (C. krusei ATCC 6258): 7.690 µg/mL; IC50 (C. krusei ATCC 6258): 16.1 µM
CC(=O)[O-].CC(=O)[O-].F[P-](F)(F)(F)(F)F.F[P-](F)(F)(F)(F)F.O.O.[Cu+2].[Cu+2].c1cc(CN2CCNCCN3CCN(CC3)CC2)cc(CN2CCNCCN3CCN(CC3)CC2)c1 [OB34, [Cu2(m-SB-Cyclens)(OAc)2][PF6]2•2H2O]	0.32	≤ 0.800 µg/mL	748 nM	–	–	–	–	–	–	–	–	–	X more potent than Amphotericin B (C. krusei ATCC 6258): 0.28; C. krusei IC50 (C. krusei ATCC 6258): 5.780 µg/mL; IC50 (C. krusei ATCC 6258): 5.4 µM
Clc1ccc2c(N3CCNCCN(c4ccnc5cc(Cl)ccc45)CCNCC3)ccnc2c1.[Cl-].[Cl-].[Mn+2] [K-PAA2-0004-P8]	–	–	–	0.0750 µg/mL	120 nM	0.30	0.0875 µg/mL	141 nM	4.82	–	–	–	–
p-CB-homocyclens HCl salt [TA22C]	0.71	0.310 µg/mL	334 nM	0.2596 µg/mL	308 nM	0.12	0.3189 µg/mL	379 nM	1.79	0.30	16.31 µg/mL	17.6 µM	–
m-CB-homocyclens HCl salt [OB65B]	1.47	0.160 µg/mL	162 nM	0.2921 µg/mL	295 nM	0.12	0.3783 µg/mL	382 nM	1.78	0.48	11.08 µg/mL	11.2 µM	–
Clc1ccc2c(N3CCCNCCCNCCNCCC3)ccnc2c1 [K-JDD-0011-P36]	–	–	–	0.0203 µg/mL	54 nM	0.68	0.5279 µg/mL	1400 nM	0.48	–	–	–	–
p-CB-cyclens HCl salt [OB15B]	0.34	0.610 µg/mL	699 nM	0.5799 µg/mL	1100 nM	0.03	0.6558 µg/mL	1240 nM	0.54	0.22	20.94 µg/mL	24 µM	–
CC(=O)[O-].CC(=O)[O-].F[P-](F)(F)(F)(F)F.F[P-](F)(F)(F)(F)F.O.[Ni+2].[Ni+2].c1cc(CN2CCNCCN3CCN(CC3)CC2)cc(CN2CCNCCN3CCN(CC3)CC2)c1 [OB35, [Ni2(m-SB-Cyclens)(OAc)2][PF6]2•H2O]	0.31	≤ 0.800 µg/mL	768 nM	–	–	–	–	–	–	–	–	–	X more potent than Amphotericin B (C. krusei ATCC 6258): 1.95; C. krusei IC50 (C. krusei ATCC 6258): 0.800 µg/mL; IC50 (C. krusei ATCC 6258): 0.768 µM
Clc1ccc2c(N3CCNCCN(c4ccnc5cc(Cl)ccc45)CCNCC3)ccnc2c1.O.O.[Fe+3].[O-][Cl+3]([O-])([O-])[O-].[O-][Cl+3]([O-])([O-])[O-].[O-][Cl+3]([O-])([O-])[O-] [K-PAA-0016-P36, Fe-complex-4,10-bis(7-chloroquinoline)cyclen)Cl2]	0.22	0.940 µg/mL	1060 nM	0.0196 µg/mL	22.1 nM	1.65	0.0336 µg/mL	37.9 nM	17.88	–	–	–	times more potent than chloroquine ([3]; chloroquine-resistant P. falciparum (W2 strain)): ~18
CCN(CC)CCCC(C)Nc1ccnc2cc(Cl)ccc12 (stereo not shown) [CQ]	–	–	–	–	–	1.00	–	–	1.00	–	–	–	IC50 ([2]; Plasmodium falciparum, D6, read-out: P. falciparum D6 IC50 (mol/L)): 36.6 nM; IC50 ([2]; Plasmodium falciparum, D6, read-out: P. falciparum D6 IC50 (μg/mL)): 0.0117 µg/mL; IC50 ([3]; Plasmodium falciparum, W2, read-out: P. falciparum W2 IC50 (mol/L)): 678 nM; IC50 ([3]; Plasmodium falciparum, W2, read-out: P. falciparum W2 IC50 (μg/mL)): 0.217 µg/mL
CN1CCN(c2ccnc3cc(Cl)ccc23)CCN(C)CCN(c2ccnc3cc(Cl)ccc23)CC1 [K-PAA-0012-P28]	–	–	–	0.1169 µg/mL	223 nM	0.16	0.1992 µg/mL	380 nM	1.78	–	–	–	–
CC(=O)[O-].F[P-](F)(F)(F)(F)F.O.[Ni+2].c1ccc(CN2CCCNCCN(Cc3ccccc3)CCCNCC2)cc1 [BME06, [Ni(Bn2Cyclam)(OAc)]PF6•H2O]	0.01	17.990 µg/mL	27200 nM	0.7495 µg/mL	1130 nM	0.03	1.7132 µg/mL	2590 nM	0.26	0.13	26.25 µg/mL	39.7 µM	–
CC(=O)[O-].F[P-](F)(F)(F)(F)F.[Co+2].c1ccc(CN2CCN3CCCN(CC2)CCN(Cc2ccccc2)CC3)cc1 [AW038, [Co(Bn2PBCyclen)(C2H3O2)]PF6]	0.04	4.370 µg/mL	6670 nM	–	–	–	–	–	–	0.17	20.66 µg/mL	31.5 µM	C. glabrata IC50 (C. glabrata ATCC 90030; in vitro): 5.800 µg/mL; IC50 (C. glabrata ATCC 90030; [8]): 8.85 µM; X more potent than Amphotericin B (C. glabrata ATCC 90030; molar IC50 ratio versus amphotericin B): 0.16; S. aureus IC50 ([5]; in vitro): 5.080 µg/mL; IC50 [5, 8]: 7.75 µM; X more potent than ciprofloxacen ([5]; molar IC50 ratio versus ciprofloxacen): 0.04
